These results are taken from patent publication US11207371B2, “Composition for improving or preventing nonalcoholic fatty liver” (KOHJIN LIFE SCIENCES CO., LTD., priority 2015, dated 2021).

Data set [1] deals with Mice (C57/B6J, 8 weeks old male) fed with high-fat food. The source says:
Mice (C57/B6J, 8 weeks old male) were divided into 4 groups (5 animals each), and the first group (DB) was freely fed with ordinary food (Certified Diet “MF” manufactured by Oriental Yeast Co., ltd.). The second group (HFD) was freely fed with high-fat food (High Fat Diet 32, manufactured by CLEA Japan, Inc.), […].
When the mouse was 20 weeks old, the body weight, the liver weight, the serum aspartate aminotransferase (AST), the alanine aminotransferase (ALT), the serum triglyceride (TG), the free fatty acid value (FFA) and the total cholesterol value (T-cho) were measured.

Data set [2] deals with subjects who had NAFLD in 31 IU/L or more of ALT. Conditions: Case IDs 1 to 9 (group affected); at least one week after initiation; glutathione 300 mg per day orally.

In the case of `N[C@@H](CCC(=O)N[C@@H](CS)C(=O)NCC(=O)O)C(=O)O` [glutathione], the “serum AST” value in data set [1] (HFD6 (6 mg/kg/day) and HFD60 (60 mg/kg/day) groups in comparison to the HFD group, 20 weeks old, concentration dependent, FIG. 5A) is listed as “significant decrease”. The “serum ALT” value in data set [1] (HFD6 (6 mg/kg/day) and HFD60 (60 mg/kg/day) groups in comparison to the HFD group, 20 weeks old, concentration dependent, FIG. 5B) is “significant decrease”. Also, the “serum TG (triglyceride value)” value in data set [1] (HFD6 (6 mg/kg/day) and HFD60 (60 mg/kg/day) groups in comparison to the HFD group, 20 weeks old, concentration dependent, FIG. 6A) is given as “significant decrease”. The “serum FFA (free fatty acid value)” value in data set [1] (HFD6 (6 mg/kg/day) and HFD60 (60 mg/kg/day) groups in comparison to the HFD group, 20 weeks old, concentration dependent, FIG. 6B) is on record as “significant decrease”. Moreover, in data set [1] (HFD6 (6 mg/kg/day) and HFD60 (60 mg/kg/day) groups in comparison to the HFD group, 20 weeks old, concentration dependent, FIG. 6C), the “serum T-cho (total cholesterol value)” value is on record as “significant decrease”. Moreover, the “consumption amount of feed” value in data set [1] (all of the groups (DB, HFD, HFD6, HFD60), FIG. 3A) was “no significant difference”. Besides, the “consumption amount of water” value in data set [1] (all of the groups (DB, HFD, HFD6, HFD60), FIG. 3B) is given as “no significant difference”. Also, the liver weight entry in data set [1] (high-fat food mice, glutathione 6 and 60 mg/kg/day in water, 20 weeks old, FIG. 4A) is “decreased dependently on the concentration”. In addition, the “ratio of liver weight/body weight” value in data set [1] (high-fat food mice, glutathione 6 and 60 mg/kg/day in water, 20 weeks old, FIG. 4B) is “decrease of the body weight ratio was also recognized”. Moreover, in data set [1] (high-fat food mice, glutathione 6 and 60 mg/kg/day in water, concluded from liver weight), the “deposition of fat on the liver by high-fat food” value is given as “suppressed”. Besides, in data set [1] (high-fat food mice, glutathione 6 or 60 mg/kg/day in water, FIGS. 1 and 2), the body weight result is recorded as “decrease of the body weight was recognized”. In addition, in data set [2], the “improvement of ALT after the administration versus before initiation (0 wk)” value was ≥ 20%.
